Experimental data: US20260294890A1, “LONG-TERM PREVENTION AND/OR TREATMENT OF A DISEASE BY SLO-1 INHIBITORS” (Elanco Animal Health GmbH, priority 2023, published 2026)

Columns and labels:
[1] = Assay 1: half-life and plasma clearance upon intravenous administration to beagle dogs; type: in vivo; conditions: dog, iv dose up to 0.3 mg/kg, plasma, geometric mean, Phoenix PK/PD (Example 1: internal tool); for half-life: read-out: Half-life (h/Form) iv, geometric mean (converted)
Protocol: Assay 1: Determination of Half-Life and Plasma Clearance of Compounds of the Invention Upon Administration to Beagle Dogs
Compounds according to the invention were administered as an intravenous (iv) dose (up to 0.3 mg/kg) to beagle dogs (minimum n=3). Blood samples were collected from these beagle dogs up to 168 h after intravenous administration and up to 3024 h after subcutaneous administration. A portion of each whole blood sample was processed to plasma. Compound concentrations were determined in plasma using LCMS/MS. Phoenix™ Pharmacokinetic and Pharmacodynamic (PK/PD) was used to determine half-life and plasma clearance values. Only for Example 1, an internal tool available to the inventors was used to determine the half-life and plasma clearance values.

[2] = log P by HPLC on reversed phase columns (LC-MS Method 0); type: physicochemical; conditions: 0.1% formic acid/acetonitrile; Method 0, acidic range, 0.1% formic acid in water and acetonitrile; read-out: log P (HCOOH)
Protocol: Measurement of log P values was performed according to EEC directive 79/831 Annex V.A8 by HPLC (High Performance Liquid Chromatography) on reversed phase columns with the following methods, instrument(s): Agilent 1100 LC system, Agilent MSD system, HTS PAL; Waters IClass Acquity UPLC, SQD2 (MS), PDA (UV). • ^[a]log P value is determined by measurement of LC-UV, in an acidic range, with 0.1% formic acid in water and acetonitrile as eluent (linear gradient from 10% acetonitrile to 95% acetonitrile). • ^[b]log P value is determined by measurement of LC-UV, in a neutral range, with 0.001 molar ammonium acetate solution in water and acetonitrile as eluent (linear gradient from 10% acetonitrile to 95% acetonitrile).
Calibration was done with straight-chain alkan-2-ones (with 3 to 16 carbon atoms) with known log P values (measurement of log P values using retention times with linear interpolation between successive alkanones). Lambda-max-values were determined using UV-spectra from 200 nm to 400 nm and the peak values of the chromatographic signals.

Ancylostoma caninum [3] = experiment: Assay 3: treatment of an existing hookworm infection in dogs (cohort A); type: in vivo; conditions: 30 mg/kg subcutaneous 15 days after infection
Protocol: (§1) 12 dogs were allocated to one of six groups in three cohorts. Each cohort comprised a negative control group (n=2) (‘Control group’) and a group (n=2) treated with the compound of Example 9 (‘Treatment group’).
(§2) Dogs in negative control groups were administered an equivalent volume of vehicle solution.
(§3) All dogs were infected with 100-300 hookworm (Ancylostoma caninum) 3rd-stage larvae (L3s) via oral gavage (W.A.A.V.P. Guidelines, First edition; Jacobs, D. E., A. Arakawa, C. H. Courtney, et al., 1994. Vet. Parasitol. 52: 179-202). The cohorts were treated as follows: • Cohort A: The compound of Example 9 or the vehicle solution was administered 15 days after infection with Ancylostoma caninum • Cohort B: The compound of Example 9 or the vehicle solution was administered 30 days prior to infection with Ancylostoma caninum • Cohort C: The compound of Example 9 or the vehicle solution was administered 60 days prior to infection with Ancylostoma caninum
(§4) Fecal egg counts (FECs, eggs per gram of feces) were obtained from each dog 15, 20, 25 and 30 days after hookworm infection.
(§5) Following the final FEC, dogs were dewormed with a commercial anthelmintic and feces were collected for 48 hours. Fecal output from each dog was soaked in water for a minimum of 30 minutes and processing through 250 μm, 150 μm and 38 μm sieves to recover expelled adult and immature hookworms. Expelled hookworms were preserved in fixative (5% formalin) and counted.
Cohort A was designed to evaluate effectiveness against patent adult hookworm infections present at the time of treatment with the compound of Example 9.

Ancylostoma caninum [4] = experiment: Assay 3: residual efficacy against hookworm infection in dogs (cohorts B and C); type: in vivo; conditions: for % Reduction of Mean Fecal Egg Count / % Reduction of Mean Number of Recovered Hookworms: vs control; for Mean Number of Recovered Hookworms: after final FEC
Protocol: as §1, §2, §3, §4, §5

Dirofilaria immitis [5] = experiment: Assay 2: residual protection test, second Dirofilaria immitis infection of dogs 90 days after treatment
Dirofilaria immitis [6] = experiment: Assay 2: prevention test, Dirofilaria immitis heartworm infection in dogs (modified Knott and heartworm antigen tests)
[7] = cohort B, 30 mg/kg subcutaneous 30 days prior to infection, 15 days after infection
[8] = cohort B, 30 mg/kg subcutaneous 30 days prior to infection, 20 days after infection
[9] = cohort B, 30 mg/kg subcutaneous 30 days prior to infection, 25 days after infection
[10] = cohort B, 30 mg/kg subcutaneous 30 days prior to infection, 30 days after infection
[11] = cohort B, 30 mg/kg subcutaneous 30 days prior to infection
[12] = cohort C, 30 mg/kg subcutaneous 60 days prior to infection, 15 days after infection
[13] = cohort C, 30 mg/kg subcutaneous 60 days prior to infection, 20 days after infection
[14] = cohort C, 30 mg/kg subcutaneous 60 days prior to infection, 25 days after infection
[15] = cohort C, 30 mg/kg subcutaneous 60 days prior to infection, 30 days after infection
[16] = cohort C, 30 mg/kg subcutaneous 60 days prior to infection

Work on `O=C(N[C@H]1CCOc2ccccc21)c1cnc2c(-c3cc(F)cc(F)c3F)c(F)ccc2c1N1CC(F)C1` [Example 7, N-[(4S)-3,4-Dihydro-2H-chromen-4-yl]-7-fluoro-4-(3-fluoroazetidin-1-yl)-8-(2,3,5-trifluorophenyl)quinoline-3-carboxamide] yielded a clearance [1] of 0.833 mL/min/kg, a half-life [1] of 124 h and a chromatographic logP [2] of 1.93.
In the case of `O=C(N[C@H]1CCOc2ccccc21)c1cnc2c(-c3cc(F)cc(F)c3F)c(F)ccc2c1[C@H]1C[C@H](F)C1` [Example 9, N—((S)-chroman-4-yl)-7-fluoro-4-((1R,3S)-3-fluorocyclobutyl)-8-(2,3,5-trifluorophenyl)quinoline-3-carboxamide], the clearance [1] is reported as 1.17 mL/min/kg, the half-life [1] is reported as 190 h and the “Fecal egg count reduction upon treatment” value (Ancylostoma caninum [3]) is reported as over 90%. For the same compound, the “Mean Fecal Egg Count” value (Ancylostoma caninum [3]; 15 days after infection) was 0 EPG, the “% Reduction of Mean Fecal Egg Count” value (Ancylostoma caninum [3]; 15 days after infection, vs control) was 100% and the “Mean Fecal Egg Count” value (Ancylostoma caninum [3]; 20 days after infection) was 0 EPG. For the same compound, the “% Reduction of Mean Fecal Egg Count” value (Ancylostoma caninum [3]; 20 days after infection, vs control) was 100%, the “Mean Fecal Egg Count” value (Ancylostoma caninum [3]; 25 days after infection) was 25 EPG and the “% Reduction of Mean Fecal Egg Count” value (Ancylostoma caninum [3]; 25 days after infection, vs control) was 93.75%. The “Mean Fecal Egg Count” value (Ancylostoma caninum [3]; 30 days after infection) was 0 EPG, the “% Reduction of Mean Fecal Egg Count” value (Ancylostoma caninum [3]; 30 days after infection, vs control) was 100% and the “Mean Number of Recovered Hookworms” value (Ancylostoma caninum [3]; after final FEC) was 0.0. For the same compound, the “% Reduction of Mean Number of Recovered Hookworms” value (Ancylostoma caninum [3]; vs control) was 100%, the “Mean Fecal Egg Count” value (Ancylostoma caninum [4]; [7]) was 0 EPG and the “% Reduction of Mean Fecal Egg Count” value (Ancylostoma caninum [4]; [7]) was 100%. The “Mean Fecal Egg Count” value (Ancylostoma caninum [4]; [8]) was 0 EPG, the “% Reduction of Mean Fecal Egg Count” value (Ancylostoma caninum [4]; [8]) was 100% and the “Mean Fecal Egg Count” value (Ancylostoma caninum [4]; [9]) was 0 EPG. The “% Reduction of Mean Fecal Egg Count” value (Ancylostoma caninum [4]; [9]) was 100%, the “Mean Fecal Egg Count” value (Ancylostoma caninum [4]; [10]) was 0 EPG and the “% Reduction of Mean Fecal Egg Count” value (Ancylostoma caninum [4]; [10]) was 100%. The “Mean Number of Recovered Hookworms” value (Ancylostoma caninum [4]; [11]) was 0, the “% Reduction of Mean Number of Recovered Hookworms” value (Ancylostoma caninum [4]; [11]) was 100% and the “Mean Fecal Egg Count” value (Ancylostoma caninum [4]; [12]) was 0 EPG. The “% Reduction of Mean Fecal Egg Count” value (Ancylostoma caninum [4]; [12]) was 100%, the “Mean Fecal Egg Count” value (Ancylostoma caninum [4]; [13]) was 0 EPG and the “% Reduction of Mean Fecal Egg Count” value (Ancylostoma caninum [4]; [13]) was 100%. The “Mean Fecal Egg Count” value (Ancylostoma caninum [4]; [14]) was 0 EPG, the “% Reduction of Mean Fecal Egg Count” value (Ancylostoma caninum [4]; [14]) was 100% and the “Mean Fecal Egg Count” value (Ancylostoma caninum [4]; [15]) was 0 EPG. For the same compound, the “% Reduction of Mean Fecal Egg Count” value (Ancylostoma caninum [4]; [15]) was 100%, the “Mean Number of Recovered Hookworms” value (Ancylostoma caninum [4]; [16]) was 0 and the “% Reduction of Mean Number of Recovered Hookworms” value (Ancylostoma caninum [4]; [16]) was 100%. For the same compound, the “duration of 100% protection from infections with hookworm larvae” value (Ancylostoma caninum [4]; cohorts B and C, 30 mg/kg subcutaneous) was “at least 60 days”, the “protection from infections with hookworm larvae” value (Ancylostoma caninum [4]; cohorts B and C, 30 mg/kg subcutaneous, FECs and expelled worm counts, for at least 60 days) was 100% and the “dogs with a positive heartworm antigen test result” value (Dirofilaria immitis [5]; 30 mg/kg subcutaneous 90 days before second infection, 149 days after second infection) was 50%. For the same compound, the “residual protection from infection with Dirofilaria immitis” value (Dirofilaria immitis [5]; dogs, 30 mg/kg subcutaneous prior to second infection) was “significant residual protection”, the “reduction in worm burden in the heart and lungs relative to the negative control group” value (Dirofilaria immitis [5]; dogs, 30 mg/kg subcutaneous prior to second infection, necropsy approx. 5 months after infection, all dogs) was over 80% and the “dogs with positive test results in the modified Knott and heartworm antigen tests” value (Dirofilaria immitis [6]; 30 mg/kg subcutaneous 90 days after infection, 150, 180 and 210 days after infection) was “None of the dogs”. The “effectiveness at preventing the development of patent adult heartworm” value (Dirofilaria immitis [6]; dogs, 30 mg/kg subcutaneous, administered 90 days after experimental infection) was 100%.
